{"source": "paper PMC12704303", "about": "“Production of RPSL12-TetR fusion and development of two multiplex methods for simultaneous detection of tetracyclines and aminoglycosides in pork” (Food Chemistry: X, 2025)", "data": [{"system": "T1, RPSL12-TetR", "T1 construct": "gene rpsL; single-chain fusion RPSL12 (372 bp) - linker (45 bp) - TetR (636 bp), total 1053 bp, in pET-32a(+), His-tag, expressed in E. coli host, Ni-NTA from soluble supernatant, about 41 kDa", "experiment": "microplate direct competition chemiluminescence, coated fusion protein, MC-HRP tracer", "assay_type": "binding, Escherichia coli", "conditions": "competition with minocycline-HRP conjugate (TetR part); blank pork extract; 37 °C, 30 min", "source_text": "microplate direct competition chemiluminescence, coated fusion protein, MC-HRP tracer on RPSL12-TetR", "units": {"IC50": "ng/mL"}, "values": [{"smiles": "CN(C)[C@@H]1C(=O)C(C(N)=O)=C(O)[C@@]2(O)C(=O)C3=C(O)c4c(O)ccc(Cl)c4[C@@H](O)[C@H]3C[C@@H]12", "note": "[DMC]", "IC50": 0.0287}, {"smiles": "CN(C)[C@@H]1C(=O)C(C(N)=O)=C(O)[C@@]2(O)C(=O)C3=C(O)c4c(O)cccc4C[C@H]3C[C@@H]12", "note": "[SC]", "IC50": 0.0378}, {"smiles": "CN(C)[C@@H]1C(O)=C(C(=O)NCNCCCC[C@H](N)C(=O)O)C(=O)[C@@]2(O)C(O)=C3C(=O)c4c(O)cccc4[C@@](C)(O)[C@H]3C[C@@H]12", "note": "[LMC]", "IC50": 0.0427}, {"smiles": "CN(C)[C@@H]1C(=O)C(C(N)=O)=C(O)[C@@]2(O)C(=O)C3=C(O)c4c(O)cccc4[C@@](C)(O)[C@H]3[C@H](O)[C@@H]12", "note": "[OTC]", "IC50": 0.0402}, {"smiles": "C[C@H]1c2cccc(O)c2C(=O)C2=C(O)[C@]3(O)C(=O)C(C(N)=O)=C(O)[C@@H](N(C)C)[C@@H]3[C@@H](O)[C@@H]21", "note": "[DC]", "IC50": 0.0395}, {"smiles": "CN(C)c1cc(NC(=O)CNC(C)(C)C)c(O)c2c1C[C@H]1C[C@H]3[C@H](N(C)C)C(=O)C(C(N)=O)=C(O)[C@@]3(O)C(=O)C1=C2O", "note": "[TIC]", "IC50": 0.0414}, {"smiles": "CN(C)[C@@H]1C(=O)C(C(N)=O)=C(O)[C@@]2(O)C(=O)C3=C(O)c4c(O)ccc(Cl)c4[C@@](C)(O)[C@H]3C[C@@H]12", "note": "[CTC]", "IC50": 0.0344}, {"smiles": "CN(C)c1ccc(O)c2c1C[C@H]1C[C@H]3[C@H](N(C)C)C(O)=C(C(N)=O)C(=O)[C@@]3(O)C(O)=C1C2=O", "note": "[MC]", "IC50": 0.0357}, {"smiles": "CN(C)[C@@H]1C(=O)C(C(N)=O)=C(O)[C@@]2(O)C(=O)C3=C(O)c4c(O)cccc4[C@@](C)(O)[C@H]3C[C@@H]12", "note": "[TC]", "IC50": 0.038}, {"smiles": "C=C1c2cccc(O)c2C(O)=C2C(=O)[C@]3(O)C(O)=C(C(N)=O)C(=O)[C@@H](N(C)C)[C@@H]3[C@@H](O)[C@H]12", "note": "[MTC]", "IC50": 0.0418}]}, {"system": "T1, RPSL12-TetR", "experiment": "microplate direct competition chemiluminescence, coated fusion protein, STR-ALP tracer", "assay_type": "binding, Escherichia coli", "conditions": "competition with streptomycin-ALP conjugate (RPSL12 part); blank pork extract; 37 °C, 30 min", "source_text": "microplate direct competition chemiluminescence, coated fusion protein, STR-ALP tracer on RPSL12-TetR", "units": {"IC50": "ng/mL"}, "values": [{"smiles": "CN[C@@H]1[C@H](O)[C@H](NC)[C@H]2O[C@@]3(O)C(=O)C[C@@H](C)O[C@H]3O[C@@H]2[C@H]1O", "note": "[SPM]", "IC50": 9.8}, {"smiles": "NCC[C@H](O)C(=O)N[C@@H]1C[C@H](N)[C@@H](O[C@H]2O[C@H](CN)[C@@H](O)[C@H](O)[C@H]2O)[C@H](O)[C@H]1O[C@H]1O[C@H](CO)[C@@H](O)[C@H](N)[C@H]1O", "note": "[AMK]", "IC50": 5.1}, {"smiles": "CCN[C@@H]1C[C@H](N)[C@@H](O[C@H]2O[C@H](CN)CC[C@H]2N)[C@H](O)[C@H]1O[C@H]1OC[C@](C)(O)[C@H](NC)[C@H]1O", "note": "[ETM]", "IC50": 17}, {"smiles": "NC[C@@H]1O[C@H](O[C@H]2[C@@H](O)[C@H](O[C@@H]3[C@@H](O)[C@H](N)C[C@H](N)[C@H]3O[C@H]3O[C@H](CO)[C@@H](O)[C@H](O)[C@H]3N)O[C@@H]2CO)[C@H](N)[C@@H](O)[C@@H]1O", "note": "[PMM]", "IC50": 5.4}, {"smiles": "CN[C@@H]1[C@H](O[C@H]2[C@H](O[C@H]3[C@H](O)[C@@H](O)[C@H](N=C(N)N)[C@@H](O)[C@@H]3N=C(N)N)O[C@@H](C)[C@]2(O)C=O)O[C@@H](CO)[C@H](O)[C@H]1O", "note": "[STR]", "IC50": 5.1}, {"smiles": "CNC[C@@H]1CC[C@@H](N)[C@@H](O[C@H]2[C@H](O)[C@@H](O[C@H]3OC[C@](C)(O)[C@H](NC)[C@H]3O)[C@H](N)C[C@@H]2N)O1", "note": "[MIM]", "IC50": 3.8}, {"smiles": "CCN[C@@H]1C[C@H](N)[C@@H](O[C@H]2OC(CN)=CC[C@H]2N)[C@H](O)[C@H]1O[C@H]1OC[C@](C)(O)[C@H](NC)[C@H]1O", "note": "[NTM]", "IC50": 16}, {"smiles": "CN[C@@H]1[C@@H](O)[C@@H](O[C@@H]2[C@@H](O)[C@H](O[C@H]3O[C@H](CN)[C@@H](O)[C@H](O)[C@H]3O)[C@@H](N)C[C@H]2NC(=O)[C@@H](O)CN)OC[C@]1(C)O", "note": "[ISM]", "IC50": 3.6}, {"smiles": "NC[C@H]1O[C@H](O[C@H]2[C@H](O)[C@@H](O[C@H]3O[C@H](CO)[C@@H](O)[C@H](N)[C@H]3O)[C@H](N)C[C@@H]2N)[C@H](O)[C@@H](O)[C@@H]1O", "note": "[KAN]", "IC50": 6.4}]}]}
